Measured values taken from PubChem BioAssay (NCI).
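How tested: cells in 96-well plates exposed to compound for 48 hours at five concentrations. GI50 is the concentration that inhibits growth by half. TGI marks complete inhibition of growth.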

Columns and labels:
Assay in all cases: NCI tumour cell line growth inhibition, 48 h; in the data active = GI50 below about 0.43 µM; inactive = the rest
786-0 renal = test system: 786-0 renal
A498 renal = test system: A498 renal
A549 NSCLC = test system: A549 NSCLC
ACHN renal = test system: ACHN renal
CAKI-1 renal = test system: CAKI-1 renal
CCRF-CEM leukemia = test system: CCRF-CEM leukemia
COLO 205 colon = test system: COLO 205 colon
DLD-1 colon = test system: DLD-1 colon
DMS 114 small cell lung = test system: DMS 114 small cell lung
DMS 273 small cell lung = test system: DMS 273 small cell lung
EKVX NSCLC = test system: EKVX NSCLC
HCC-2998 colon = test system: HCC-2998 colon
HCT-116 colon = test system: HCT-116 colon
HCT-15 colon = test system: HCT-15 colon
HL-60(TB) leukemia = test system: HL-60(TB) leukemia
HOP-18 NSCLC = test system: HOP-18 NSCLC
HOP-62 NSCLC = test system: HOP-62 NSCLC
HOP-92 NSCLC = test system: HOP-92 NSCLC
HT29 colon = test system: HT29 colon
IGROV1 ovarian = test system: IGROV1 ovarian
K-562 leukemia = test system: K-562 leukemia
KM12 colon = test system: KM12 colon
KM20L2 colon = test system: KM20L2 colon
LOX IMVI melanoma = test system: LOX IMVI melanoma
LXFL 529 NSCLC = test system: LXFL 529 NSCLC
M14 melanoma = test system: M14 melanoma
M19-MEL melanoma = test system: M19-MEL melanoma
MALME-3M melanoma = test system: MALME-3M melanoma
MOLT-4 leukemia = test system: MOLT-4 leukemia
NCI-H226 lung = test system: NCI-H226 lung
NCI-H23 lung = test system: NCI-H23 lung
NCI-H460 lung = test system: NCI-H460 lung
NCI-H522 lung = test system: NCI-H522 lung
OVCAR-3 ovarian = test system: OVCAR-3 ovarian
OVCAR-4 ovarian = test system: OVCAR-4 ovarian
OVCAR-5 ovarian = test system: OVCAR-5 ovarian
OVCAR-8 ovarian = test system: OVCAR-8 ovarian
RPMI-8226 leukemia = test system: RPMI-8226 leukemia
RXF 393 renal = test system: RXF 393 renal
RXF-631 renal = test system: RXF-631 renal
SF-268 CNS = test system: SF-268 CNS
SF-295 CNS = test system: SF-295 CNS
SF-539 CNS = test system: SF-539 CNS
SK-MEL-2 melanoma = test system: SK-MEL-2 melanoma
SK-MEL-28 melanoma = test system: SK-MEL-28 melanoma
SK-MEL-5 melanoma = test system: SK-MEL-5 melanoma
SK-OV-3 ovarian = test system: SK-OV-3 ovarian
SN12C renal = test system: SN12C renal
SNB-19 CNS = test system: SNB-19 CNS
SNB-75 CNS = test system: SNB-75 CNS
SNB-78 CNS = test system: SNB-78 CNS
SW-620 colon = test system: SW-620 colon
TK-10 renal = test system: TK-10 renal
U251 CNS = test system: U251 CNS
UACC-257 melanoma = test system: UACC-257 melanoma
UACC-62 melanoma = test system: UACC-62 melanoma
UO-31 renal = test system: UO-31 renal
XF 498 CNS = test system: XF 498 CNS
P388 leukemia = test system: P388 leukemia
MCF7 breast = test system: MCF7 breast
NCI/ADR-RES ovarian = test system: NCI/ADR-RES ovarian
P388/ADR leukemia = test system: P388/ADR leukemia
SN12K1 renal = test system: SN12K1 renal

O=c1oc2ccccc2[n+]([O-])c1-c1ccccc1
> 100 µM: TGI (786-0 renal) | TGI (A498 renal) | TGI (A549 NSCLC) | TGI (ACHN renal) | TGI (CAKI-1 renal) | TGI (CCRF-CEM leukemia) | TGI (COLO 205 colon) | TGI (DLD-1 colon) | TGI (DMS 114 small cell lung) | TGI (DMS 273 small cell lung) | TGI (EKVX NSCLC) | TGI (HCC-2998 colon) | TGI (HCT-116 colon) | TGI (HCT-15 colon) | TGI (HL-60(TB) leukemia) | TGI (HOP-18 NSCLC) | TGI (HOP-62 NSCLC) | TGI (HOP-92 NSCLC) | TGI (HT29 colon) | TGI (IGROV1 ovarian) | TGI (K-562 leukemia) | TGI (KM12 colon) | TGI (KM20L2 colon) | TGI (LOX IMVI melanoma) | TGI (LXFL 529 NSCLC) | TGI (M14 melanoma) | TGI (M19-MEL melanoma) | TGI (MALME-3M melanoma) | TGI (MOLT-4 leukemia) | TGI (NCI-H226 lung) | TGI (NCI-H23 lung) | TGI (NCI-H460 lung) | TGI (NCI-H522 lung) | TGI (OVCAR-3 ovarian) | TGI (OVCAR-4 ovarian) | TGI (OVCAR-5 ovarian) | TGI (OVCAR-8 ovarian) | TGI (RPMI-8226 leukemia) | TGI (RXF 393 renal) | TGI (RXF-631 renal) | TGI (SF-268 CNS) | TGI (SF-295 CNS) | TGI (SF-539 CNS) | TGI (SK-MEL-2 melanoma) | TGI (SK-MEL-28 melanoma) | TGI (SK-MEL-5 melanoma) | TGI (SK-OV-3 ovarian) | TGI (SN12C renal) | TGI (SNB-19 CNS) | TGI (SNB-75 CNS) | TGI (SNB-78 CNS) | TGI (SW-620 colon) | TGI (TK-10 renal) | TGI (U251 CNS) | TGI (UACC-257 melanoma) | TGI (UACC-62 melanoma) | TGI (UO-31 renal) | TGI (XF 498 CNS)

CCc1c2c(nc3ccc(OC(=O)N4CCC(N5CCCCC5)CC4)cc13)-c1cc3c(c(=O)n1C2)COC(=O)[C@]3(O)CC
> 100 µM: TGI (SNB-78 CNS)
inactive: GI50 (KM20L2 colon) 17.2 µM | GI50 (P388 leukemia) 10.1 µM | GI50 (SNB-78 CNS) 53.7 µM
40.2 µM: TGI (P388 leukemia)
66.3 µM: TGI (KM20L2 colon)

CN(C)CCNC(=O)c1cccc2nc(-c3ccccc3)oc12
> 94.3 µM: TGI (A498 renal)
> 55.8 µM: TGI (EKVX NSCLC)
> 64.3 µM: TGI (P388/ADR leukemia)
96.2 µM: TGI (HL-60(TB) leukemia)
98.1 µM: TGI (UACC-257 melanoma)
45.1 µM: TGI (UO-31 renal)
20.3 µM: TGI (P388 leukemia)
> 89.5 µM: TGI (MOLT-4 leukemia)
99 µM: TGI (MALME-3M melanoma)
> 79.8 µM: TGI (SNB-19 CNS)
99.6 µM: TGI (NCI/ADR-RES ovarian)
99.5 µM: TGI (M19-MEL melanoma)
> 100 µM: TGI (A549 NSCLC) | TGI (CCRF-CEM leukemia) | TGI (DLD-1 colon) | TGI (DMS 114 small cell lung) | TGI (HCC-2998 colon) | TGI (HCT-116 colon) | TGI (HCT-15 colon) | TGI (HOP-18 NSCLC) | TGI (HOP-62 NSCLC) | TGI (HT29 colon) | TGI (IGROV1 ovarian) | TGI (K-562 leukemia) | TGI (KM12 colon) | TGI (KM20L2 colon) | TGI (NCI-H23 lung) | TGI (NCI-H460 lung) | TGI (OVCAR-3 ovarian) | TGI (OVCAR-4 ovarian) | TGI (OVCAR-5 ovarian) | TGI (OVCAR-8 ovarian) | TGI (RPMI-8226 leukemia) | TGI (RXF 393 renal) | TGI (SF-268 CNS) | TGI (SF-295 CNS) | TGI (SF-539 CNS) | TGI (SK-MEL-2 melanoma) | TGI (SK-MEL-28 melanoma) | TGI (SK-OV-3 ovarian) | TGI (SN12C renal) | TGI (SNB-75 CNS) | TGI (SNB-78 CNS) | TGI (SW-620 colon) | TGI (U251 CNS) | TGI (UACC-62 melanoma)
> 91.9 µM: TGI (XF 498 CNS)
> 75.5 µM: TGI (SN12K1 renal)
59.6 µM: TGI (SK-MEL-5 melanoma)
28.2 µM: TGI (MCF7 breast)
42.8 µM: TGI (COLO 205 colon)
> 71.8 µM: TGI (LOX IMVI melanoma)
84 µM: TGI (NCI-H226 lung)
59.4 µM: TGI (HOP-92 NSCLC)

CCOC(=O)c1cc2c3c(c(O)c(OC)c2s1)N(C(=O)c1cc2c4c(c(O)c(OC)c2s1)N(C(C)=O)CC4)CC3
67.1 µM: TGI (SNB-75 CNS)
> 100 µM: TGI (786-0 renal) | TGI (A498 renal) | TGI (A549 NSCLC) | TGI (ACHN renal) | TGI (CAKI-1 renal) | TGI (CCRF-CEM leukemia) | TGI (COLO 205 colon) | TGI (DLD-1 colon) | TGI (DMS 114 small cell lung) | TGI (DMS 273 small cell lung) | TGI (EKVX NSCLC) | TGI (HCC-2998 colon) | TGI (HCT-116 colon) | TGI (HL-60(TB) leukemia) | TGI (HOP-18 NSCLC) | TGI (HOP-62 NSCLC) | TGI (HOP-92 NSCLC) | TGI (HT29 colon) | TGI (IGROV1 ovarian) | TGI (K-562 leukemia) | TGI (KM12 colon) | TGI (KM20L2 colon) | TGI (LOX IMVI melanoma) | TGI (LXFL 529 NSCLC) | TGI (M14 melanoma) | TGI (M19-MEL melanoma) | TGI (MALME-3M melanoma) | TGI (NCI-H226 lung) | TGI (NCI-H23 lung) | TGI (NCI-H460 lung) | TGI (NCI-H522 lung) | TGI (OVCAR-3 ovarian) | TGI (OVCAR-4 ovarian) | TGI (OVCAR-5 ovarian) | TGI (OVCAR-8 ovarian) | TGI (RPMI-8226 leukemia) | TGI (RXF 393 renal) | TGI (RXF-631 renal) | TGI (SF-268 CNS) | TGI (SF-295 CNS) | TGI (SF-539 CNS) | TGI (SK-MEL-28 melanoma) | TGI (SK-MEL-5 melanoma) | TGI (SK-OV-3 ovarian) | TGI (SN12C renal) | TGI (SNB-19 CNS) | TGI (SNB-78 CNS) | TGI (SW-620 colon) | TGI (TK-10 renal) | TGI (U251 CNS) | TGI (UACC-257 melanoma) | TGI (UACC-62 melanoma) | TGI (UO-31 renal)
67.8 µM: TGI (XF 498 CNS)
